Here are results for two compounds from ChEMBL document CHEMBL4321836, “Discovery of BAY-298 and BAY-899: Tetrahydro-1,6-naphthyridine-Based, Potent, and Selective Antagonists of the Luteinizing Hormone Receptor Which Reduce Sex Hormone Levels in Vivo” (J Med Chem, 2019).

Data set [1] addresses D(2) dopamine receptor (Homo sapiens) (UniProt P14416). Kind of data set: Antagonist activity at human Dopamine D2L receptor expressed in CHO-K1 cells at 10 uM by Fluorimetric analysis relative to control. The class given is cell-based. On the set-up: scale not given: the % may be the effect or the level left.
Data set [2] deals with D(1A) dopamine receptor (Homo sapiens) (UniProt P21728). In words: Agonist activity at human D1 receptor expressed in CHO-K1 cells at 10 uM after 30 mins HTRF assay relative to control. The class given is cell-based. For orientation: Time-resolved FRET reads energy transfer from a long-lived donor to a nearby acceptor.
Data set [3] concerns the target P2Y purinoceptor 2 (Homo sapiens) (UniProt P41231). In words: Antagonist activity at human P2Y2 receptor expressed in human 1321N1 cells at 10 uM by fluorimetric method relative to control. The class given is cell-based. On the set-up: scale not given: the % may be the effect or the level left.
Data set [4] addresses Cytochrome P450 2D6 (Homo sapiens, UniProt P10635). Kind of data set: Inhibition of CYP2D6 in human liver microsomes using dextromethorphan as substrate by LC-MS/MS analysis. The class given is ADME.
A short description of data set [5]: Dose normalized AUC in Wistar rat at 0.5 mg/kg, iv after 2 to 72 hrs by LC-MS/MS analysis. The class given is ADME, organism-based. The conditions noted are these: in vivo.
Data set [6] deals with Histamine H1 receptor (Homo sapiens) (UniProt P35367). In words: Antagonist activity at human histamine H1 receptor expressed in HEK293 cells at 10 uM by Fluorimetric method relative to control. The class given is cell-based. On the set-up: scale not given: the % may be the effect or the level left.
For data set [7], the target named is Muscarinic acetylcholine receptor M4 (Homo sapiens) (UniProt P08173). In words: Agonist activity at human muscarinic M4 receptor expressed in CHO-K1 cells at 10 uM after 10 mins by HTRF method relative to control. The class given is cell-based.
The target of data set [8] is P2Y purinoceptor 2 (Homo sapiens) (UniProt P41231). Kind of data set: Agonist activity at human P2Y2 receptor expressed in human 1321N1 cells at 10 uM by fluorimetric method relative to control. The class given is cell-based.
The target in data set [9] is T1, 5-hydroxytryptamine receptor 1A (Homo sapiens) (UniProt P08908).
T1 sequence (whole entry): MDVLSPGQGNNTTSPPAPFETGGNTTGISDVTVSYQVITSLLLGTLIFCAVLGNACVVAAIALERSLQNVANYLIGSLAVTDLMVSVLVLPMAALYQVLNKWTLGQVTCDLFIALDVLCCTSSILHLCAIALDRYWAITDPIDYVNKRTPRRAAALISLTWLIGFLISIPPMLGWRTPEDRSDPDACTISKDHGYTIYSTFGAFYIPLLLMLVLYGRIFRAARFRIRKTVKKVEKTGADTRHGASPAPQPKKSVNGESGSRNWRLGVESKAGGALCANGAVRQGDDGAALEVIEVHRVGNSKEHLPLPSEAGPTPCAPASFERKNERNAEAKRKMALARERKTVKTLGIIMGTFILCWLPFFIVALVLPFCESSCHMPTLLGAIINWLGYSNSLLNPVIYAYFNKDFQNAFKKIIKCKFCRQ
In words: Agonist activity at human 5-HT1A receptor expressed in mouse BA/F3 cells at 10 uM by fluorimetric method relative to control. The class given is cell-based.

Data set [10] concerns the target Histamine H3 receptor (Homo sapiens) (UniProt Q9Y5N1). In words: Agonist activity at human histamine H3 receptor expressed in CHO-K1 cells at 10 uM after 10 mins by HTRF assay relative to control. The class given is cell-based.
A short description of data set [11]: Apparent permeability across basolateral to apical side in human Caco2 cells at 2 uM after 2 hrs by LC-MS/MS analysis. The class given is ADME, cell-based. The conditions noted are these: Caco-2.
Data set [12] deals with Histamine H1 receptor (Homo sapiens) (UniProt P35367). Kind of data set: Agonist activity at human histamine H1 receptor expressed in HEK293 cells at 10 uM by Fluorimetric method relative to control. The class given is cell-based.
Data set [13] concerns the target Melanocortin receptor 4 (Homo sapiens) (UniProt P32245). Kind of data set: Antagonist activity at human MC4 receptor expressed in CHO-K1 cells at 10 uM after 30 mins by HTRF assay relative to control. The class given is cell-based. On the set-up: scale not given: the % may be the effect or the level left.
The nature of data set [14]: Clearance in rat liver microsomes at 1 uM measured after 2 to 60 mins in presence of glucose-6-phosphate by LC-MS/MS analysis. The class given is ADME, Microsome. (In general: Liver microsomes are a subcellular fraction often used to study metabolism.)
Data set [15] has as its target T2, Follicle-stimulating hormone receptor (Homo sapiens, UniProt P23945).
T2 sequence (P23945 whole entry): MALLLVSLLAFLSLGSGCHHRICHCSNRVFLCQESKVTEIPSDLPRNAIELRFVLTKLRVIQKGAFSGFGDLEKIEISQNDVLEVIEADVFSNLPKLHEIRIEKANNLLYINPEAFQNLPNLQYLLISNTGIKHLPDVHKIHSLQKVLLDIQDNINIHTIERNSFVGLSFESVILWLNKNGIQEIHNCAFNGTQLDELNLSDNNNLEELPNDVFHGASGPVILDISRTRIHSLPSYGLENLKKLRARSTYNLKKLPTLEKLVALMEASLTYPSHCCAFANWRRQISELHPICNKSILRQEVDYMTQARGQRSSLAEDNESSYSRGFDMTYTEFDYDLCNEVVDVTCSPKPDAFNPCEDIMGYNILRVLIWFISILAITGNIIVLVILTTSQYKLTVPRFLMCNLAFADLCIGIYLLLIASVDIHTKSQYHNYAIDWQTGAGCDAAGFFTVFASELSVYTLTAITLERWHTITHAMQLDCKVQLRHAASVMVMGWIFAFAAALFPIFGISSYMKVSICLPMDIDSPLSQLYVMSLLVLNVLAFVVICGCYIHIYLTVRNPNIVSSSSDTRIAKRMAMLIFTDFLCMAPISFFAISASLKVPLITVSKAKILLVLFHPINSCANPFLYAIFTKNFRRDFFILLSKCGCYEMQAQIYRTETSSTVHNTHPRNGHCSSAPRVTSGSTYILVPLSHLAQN
Kind of data set: Antagonist activity at human follicle stimulating hormone receptor assessed as reduction in agonist-induced cAMP production preincubated for 20 mins followed by agonist solution addition and measured after 120 mins by cell based TR-FRET assay. The class given is functional.

The target in data set [16] is Cytochrome P450 3A4 (Homo sapiens, UniProt P08684). Kind of data set: Inhibition of CYP3A4 in human liver microsomes using midazolam as substrate treated prior to substrate addition by LC-MS/MS analysis. The class given is ADME.
The target in data set [17] is Melanocortin receptor 4 (Homo sapiens) (UniProt P32245). Kind of data set: Agonist activity at human MC4 receptor expressed in CHO-K1 cells at 10 uM after 30 mins by HTRF assay relative to control. The class given is cell-based.
The target of data set [18] is Mu-type opioid receptor (Homo sapiens) (UniProt P35372). Kind of data set: Agonist activity at human mu opioid receptor expressed in CHO-K1 cells at 10 uM after 10 mins by HTRF assay relative to control. The class given is cell-based.
In data set [19] the target is T3, Adenosine receptor A2b (Homo sapiens) (UniProt P29275).
T3 sequence (whole entry): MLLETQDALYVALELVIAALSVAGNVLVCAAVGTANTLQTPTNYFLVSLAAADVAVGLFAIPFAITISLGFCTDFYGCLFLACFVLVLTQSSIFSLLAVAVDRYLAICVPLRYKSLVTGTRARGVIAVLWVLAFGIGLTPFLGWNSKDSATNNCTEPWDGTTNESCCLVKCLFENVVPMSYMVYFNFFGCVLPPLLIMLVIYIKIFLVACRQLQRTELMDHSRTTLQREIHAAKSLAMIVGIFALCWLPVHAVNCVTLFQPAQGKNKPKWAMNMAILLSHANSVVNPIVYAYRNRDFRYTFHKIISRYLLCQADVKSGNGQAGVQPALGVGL
In words: Agonist activity at human A2B receptor expressed in HEK293 cells at 10 uM after 10 mins by HTRF assay relative to control. The class given is cell-based.

Data set [20] is described as follows: Toxicity in female rat assessed as reduction in body weight. The conditions noted are these: in vivo.

In general, IC50 refers to the concentration that gives 50% inhibition. For orientation: Papp B→A means the apparent permeability from the basolateral to the apical side of a cell layer.

P2Y purinoceptor 2 (Homo sapiens), sequence (P41231 whole entry): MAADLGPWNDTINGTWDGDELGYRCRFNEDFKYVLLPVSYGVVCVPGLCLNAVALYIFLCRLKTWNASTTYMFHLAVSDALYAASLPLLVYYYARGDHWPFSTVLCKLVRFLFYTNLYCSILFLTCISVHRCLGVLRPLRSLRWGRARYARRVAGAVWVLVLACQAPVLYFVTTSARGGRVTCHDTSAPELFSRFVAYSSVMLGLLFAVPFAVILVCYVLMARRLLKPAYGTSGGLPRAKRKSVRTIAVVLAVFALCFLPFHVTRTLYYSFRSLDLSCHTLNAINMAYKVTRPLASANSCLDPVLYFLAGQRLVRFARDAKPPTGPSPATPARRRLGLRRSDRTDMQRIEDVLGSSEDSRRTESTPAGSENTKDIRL
Melanocortin receptor 4 (Homo sapiens), sequence (P32245 whole entry): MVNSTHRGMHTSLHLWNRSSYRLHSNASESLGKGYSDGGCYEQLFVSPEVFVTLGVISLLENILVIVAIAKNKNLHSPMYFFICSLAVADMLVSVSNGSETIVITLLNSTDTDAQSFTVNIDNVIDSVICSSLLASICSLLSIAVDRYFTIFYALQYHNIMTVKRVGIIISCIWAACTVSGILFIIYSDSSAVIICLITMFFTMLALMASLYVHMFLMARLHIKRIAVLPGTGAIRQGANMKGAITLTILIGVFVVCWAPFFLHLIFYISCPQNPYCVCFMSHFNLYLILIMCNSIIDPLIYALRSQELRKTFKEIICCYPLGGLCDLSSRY
Histamine H1 receptor (Homo sapiens), sequence (P35367 whole entry): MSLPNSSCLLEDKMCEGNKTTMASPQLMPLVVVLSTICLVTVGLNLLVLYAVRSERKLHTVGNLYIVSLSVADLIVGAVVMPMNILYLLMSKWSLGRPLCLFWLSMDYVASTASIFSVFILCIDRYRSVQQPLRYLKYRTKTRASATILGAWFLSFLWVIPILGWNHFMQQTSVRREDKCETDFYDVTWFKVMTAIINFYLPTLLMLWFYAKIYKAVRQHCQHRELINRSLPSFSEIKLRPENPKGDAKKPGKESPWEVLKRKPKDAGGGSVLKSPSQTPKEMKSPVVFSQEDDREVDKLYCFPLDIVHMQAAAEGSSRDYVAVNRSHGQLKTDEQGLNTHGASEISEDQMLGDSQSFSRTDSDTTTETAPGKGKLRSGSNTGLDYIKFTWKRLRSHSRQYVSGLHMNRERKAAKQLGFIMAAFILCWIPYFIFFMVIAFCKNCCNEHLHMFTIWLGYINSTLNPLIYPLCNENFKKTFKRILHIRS
Muscarinic acetylcholine receptor M4 (Homo sapiens), sequence (P08173 whole entry): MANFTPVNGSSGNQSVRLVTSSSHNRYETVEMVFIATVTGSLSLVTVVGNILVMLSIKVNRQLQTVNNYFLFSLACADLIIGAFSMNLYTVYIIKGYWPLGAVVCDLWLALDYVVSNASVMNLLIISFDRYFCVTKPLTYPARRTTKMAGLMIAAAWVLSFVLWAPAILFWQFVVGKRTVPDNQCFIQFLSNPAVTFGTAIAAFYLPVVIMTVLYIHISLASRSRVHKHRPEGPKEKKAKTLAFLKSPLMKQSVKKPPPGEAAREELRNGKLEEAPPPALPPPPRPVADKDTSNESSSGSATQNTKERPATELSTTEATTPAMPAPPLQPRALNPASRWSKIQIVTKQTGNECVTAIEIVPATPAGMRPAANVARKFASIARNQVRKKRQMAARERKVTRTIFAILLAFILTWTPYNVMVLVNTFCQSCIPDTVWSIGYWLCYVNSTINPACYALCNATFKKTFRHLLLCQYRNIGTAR
D(1A) dopamine receptor (Homo sapiens), sequence (P21728 whole entry): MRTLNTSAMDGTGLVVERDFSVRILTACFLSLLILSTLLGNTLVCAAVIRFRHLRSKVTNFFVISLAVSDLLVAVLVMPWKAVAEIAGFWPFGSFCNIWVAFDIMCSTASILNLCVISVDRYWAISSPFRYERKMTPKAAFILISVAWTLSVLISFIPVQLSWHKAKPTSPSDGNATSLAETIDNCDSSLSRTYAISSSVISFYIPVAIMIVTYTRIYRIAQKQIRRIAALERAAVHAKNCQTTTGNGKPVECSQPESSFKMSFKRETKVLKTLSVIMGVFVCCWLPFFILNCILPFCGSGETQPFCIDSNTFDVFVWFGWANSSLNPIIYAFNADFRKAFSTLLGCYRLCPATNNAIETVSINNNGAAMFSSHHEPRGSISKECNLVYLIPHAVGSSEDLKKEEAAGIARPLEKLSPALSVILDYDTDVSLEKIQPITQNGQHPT
Histamine H3 receptor (Homo sapiens), sequence (Q9Y5N1 whole entry): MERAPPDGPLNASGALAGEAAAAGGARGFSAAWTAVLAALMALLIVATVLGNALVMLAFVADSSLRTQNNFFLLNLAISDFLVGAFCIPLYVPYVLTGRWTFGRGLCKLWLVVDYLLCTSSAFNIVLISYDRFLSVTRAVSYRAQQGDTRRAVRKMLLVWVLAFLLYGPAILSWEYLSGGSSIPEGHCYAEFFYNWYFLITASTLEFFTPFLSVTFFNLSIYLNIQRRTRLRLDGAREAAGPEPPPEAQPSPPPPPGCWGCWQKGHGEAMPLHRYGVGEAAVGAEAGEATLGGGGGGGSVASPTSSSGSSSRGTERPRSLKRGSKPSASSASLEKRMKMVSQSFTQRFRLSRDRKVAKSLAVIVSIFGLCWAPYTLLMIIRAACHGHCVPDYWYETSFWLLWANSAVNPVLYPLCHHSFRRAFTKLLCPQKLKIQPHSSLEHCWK
D(2) dopamine receptor (Homo sapiens), sequence (P14416 whole entry): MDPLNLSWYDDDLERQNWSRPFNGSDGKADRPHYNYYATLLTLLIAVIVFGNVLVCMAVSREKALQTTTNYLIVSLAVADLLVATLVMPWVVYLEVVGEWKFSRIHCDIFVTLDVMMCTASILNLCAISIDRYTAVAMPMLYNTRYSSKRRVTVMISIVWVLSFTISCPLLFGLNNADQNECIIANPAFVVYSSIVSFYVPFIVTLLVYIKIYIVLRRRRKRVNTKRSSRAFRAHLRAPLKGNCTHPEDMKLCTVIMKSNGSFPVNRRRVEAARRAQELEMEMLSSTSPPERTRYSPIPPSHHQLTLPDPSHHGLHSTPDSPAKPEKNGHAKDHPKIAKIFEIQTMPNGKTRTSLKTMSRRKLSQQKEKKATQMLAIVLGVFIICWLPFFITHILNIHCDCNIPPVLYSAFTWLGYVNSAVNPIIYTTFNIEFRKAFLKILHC
Cytochrome P450 2D6, sequence (P10635 whole entry): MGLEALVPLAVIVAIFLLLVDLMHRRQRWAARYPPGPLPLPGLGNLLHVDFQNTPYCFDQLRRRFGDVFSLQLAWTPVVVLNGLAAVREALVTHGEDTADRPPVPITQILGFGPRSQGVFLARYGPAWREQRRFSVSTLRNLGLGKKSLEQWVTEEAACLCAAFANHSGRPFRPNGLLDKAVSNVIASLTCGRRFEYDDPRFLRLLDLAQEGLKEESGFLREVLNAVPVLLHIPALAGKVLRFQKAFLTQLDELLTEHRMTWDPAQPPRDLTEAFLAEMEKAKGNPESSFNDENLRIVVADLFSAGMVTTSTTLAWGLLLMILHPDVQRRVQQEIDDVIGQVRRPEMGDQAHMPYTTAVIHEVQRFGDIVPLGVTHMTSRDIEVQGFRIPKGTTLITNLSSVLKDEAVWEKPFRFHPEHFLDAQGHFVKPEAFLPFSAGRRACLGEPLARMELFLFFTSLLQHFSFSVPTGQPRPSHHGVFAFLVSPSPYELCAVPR
Mu-type opioid receptor (Homo sapiens), sequence (P35372 whole entry): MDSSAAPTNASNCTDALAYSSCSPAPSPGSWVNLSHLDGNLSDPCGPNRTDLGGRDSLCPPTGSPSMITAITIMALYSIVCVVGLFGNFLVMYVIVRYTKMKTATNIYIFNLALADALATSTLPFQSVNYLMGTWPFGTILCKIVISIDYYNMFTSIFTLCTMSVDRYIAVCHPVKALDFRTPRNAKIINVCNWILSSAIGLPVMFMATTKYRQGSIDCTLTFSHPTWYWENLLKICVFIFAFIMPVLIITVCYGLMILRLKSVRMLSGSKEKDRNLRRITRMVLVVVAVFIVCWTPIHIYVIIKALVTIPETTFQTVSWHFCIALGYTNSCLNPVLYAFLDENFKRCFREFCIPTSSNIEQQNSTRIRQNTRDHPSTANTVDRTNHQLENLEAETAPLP
Cytochrome P450 3A4, sequence (P08684 whole entry): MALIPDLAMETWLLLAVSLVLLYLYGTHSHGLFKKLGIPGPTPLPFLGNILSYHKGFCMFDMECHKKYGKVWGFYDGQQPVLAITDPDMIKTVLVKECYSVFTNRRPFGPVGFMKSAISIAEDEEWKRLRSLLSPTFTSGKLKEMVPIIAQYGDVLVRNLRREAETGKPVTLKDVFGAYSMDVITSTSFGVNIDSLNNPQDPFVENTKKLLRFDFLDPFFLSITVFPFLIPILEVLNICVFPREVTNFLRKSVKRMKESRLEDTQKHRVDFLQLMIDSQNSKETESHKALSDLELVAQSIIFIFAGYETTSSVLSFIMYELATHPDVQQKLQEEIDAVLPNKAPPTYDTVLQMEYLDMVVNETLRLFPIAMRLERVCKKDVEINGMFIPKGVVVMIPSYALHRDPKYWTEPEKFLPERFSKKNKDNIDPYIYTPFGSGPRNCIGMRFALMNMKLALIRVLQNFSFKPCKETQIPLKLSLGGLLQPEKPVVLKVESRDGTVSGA

For `O=C(Nc1ccc(Oc2ccc(F)cc2)cc1)N1CCc2ncccc2[C@@H]1c1ccc(Cl)cc1`, the Activity in data set [1], in data set [2], in data set [3], in data set [6], in [7] and in data set [8] was < 70% each time. The Activity in [9], in data set [10], in [12], in data set [13], in data set [17] and in [18] was < 70% each time. Also, the figures for the Activity in data set [19] and in data set [20] were < 70% and “Non-Toxic”, respectively. For the same compound, the figures for the IC50 in data set [4], in [15] and in data set [16] were > 20 µM, > 16 µM and > 20 µM, respectively. Moreover, in data set [5], the AUC/dose turned out to be 9.4 kg·h/L. In addition, the Papp B→A at 2 h, 2 µM in [11] is 2 ×10⁻⁶ cm/s. The CLH in data set [14] is 3.3 mL/min/kg.
Turning to `O=C(Nc1cnc(Oc2ccc(F)cc2)nc1)N1CCc2ncccc2[C@@H]1c1ccc(F)cc1` [BAY-899], the Activity in [1], in data set [2], in data set [3], in data set [6], in data set [7] and in [8] was < 70% in each case. In addition, the Activity in data set [9], in data set [10], in data set [12], in data set [13], in data set [17] and in [18] was < 70% in each case. Moreover, the figures for the Activity in data set [19] and in data set [20] were < 70% and “Non-Toxic”, respectively. The IC50 in [4] was > 20 µM; in data set [15], > 16 µM; in [16], > 20 µM. Also, the AUC/dose in data set [5] was 2.5 kg·h/L. For the same compound, in data set [11], the Papp B→A at 2 h, 2 µM came to 9.5 ×10⁻⁶ cm/s. In addition, the CLH in [14] came to 3.3 mL/min/kg.
